Source: PubChem BioAssay AID248 (DTP/NCI, 2004)
Toxic doses and inconclusive results are not listed. Rule as the data show it: active = T/C of 150% or more; inactive = T/C below 125%.

System: L1210 leukemia ip in BDF1 mice, survival T/C
Assay: NCI In Vivo Anticancer Drug Screen. Data for tumor model L1210 Leukemia (intraperitoneal) in B6D2F1 (BDF1) mice
Conditions: endpoint: mean survival time, higher = longer survival
Outline: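 Transplantable tumor model; survival measured in treated vs vehicle control mice. Value = treated/control.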

[1] = dose: 100.0 mg/kg/injection, schedule: Q04DX002 (ip), vehicle: Klucel (hydroxypropylcellulose) (HPC)
[2] = dose: 200.0 mg/kg/injection, schedule: Q04DX002 (ip), vehicle: Klucel (hydroxypropylcellulose) (HPC)
[3] = dose: 400.0 mg/kg/injection, schedule: Q04DX002 (ip), vehicle: Klucel (hydroxypropylcellulose) (HPC)
[4] = dose: 100.0 mg/kg/injection, schedule: Q04DX003 (ip), vehicle: saline with Tween-80
[5] = dose: 400.0 mg/kg/injection, schedule: Q04DX003 (ip), vehicle: saline with Tween-80
[6] = dose: 100.0 mg/kg/injection, schedule: Q01DX009 (ip), vehicle: Klucel (hydroxypropylcellulose) (HPC)
[7] = dose: 200.0 mg/kg/injection, schedule: Q01DX009 (ip), vehicle: Klucel (hydroxypropylcellulose) (HPC)
[8] = dose: 400.0 mg/kg/injection, schedule: Q01DX009 (ip), vehicle: Klucel (hydroxypropylcellulose) (HPC)
[9] = dose: 100.0 mg/kg/injection, schedule: Q04DX003 (ip), vehicle: Klucel (hydroxypropylcellulose) (HPC)
[10] = dose: 200.0 mg/kg/injection, schedule: Q04DX003 (ip), vehicle: Klucel (hydroxypropylcellulose) (HPC)
[11] = dose: 100.0 mg/kg/injection, schedule: Q01DX009 (ip), vehicle: saline with Tween-80
[12] = dose: 200.0 mg/kg/injection, schedule: Q01DX009 (ip), vehicle: saline with Tween-80
[13] = dose: 200.0 mg/kg/injection, schedule: Q04DX003 (ip), vehicle: saline with Tween-80

Measured: T/C

O=C(CCCCNC(=O)C1CCCN1Sc1ccc([N+](=O)[O-])cc1[N+](=O)[O-])OCc1ccccc1 (centres undefined)
inactive: [1] 90 % of control | [2] 94 % of control | [3] 94 % of control

CCCC(=O)Nc1cccc(OC(=O)NC)c1
inactive: [4] 90 % of control | [5] 88 % of control

CC(=O)Oc1cc(OC(C)=O)c2ccccc2c1OC(C)=O
inactive: dose: 1.56 mg/kg/injection, schedule: Q04DX003 (ip), vehicle: saline 102 % of control | dose: 3.12 mg/kg/injection, schedule: Q04DX003 (ip), vehicle: saline 106 % of control | dose: 6.25 mg/kg/injection, schedule: Q04DX003 (ip), vehicle: saline 102 % of control | dose: 12.5 mg/kg/injection, schedule: Q01DX001 (ip), vehicle: saline 103 % of control | dose: 25.0 mg/kg/injection, schedule: Q01DX001 (ip), vehicle: saline 97 % of control | dose: 50.0 mg/kg/injection, schedule: Q01DX001 (ip), vehicle: saline 100 % of control

NC(N)=N/N=C/CN1C(=O)c2ccccc2C1=O
inactive: dose: 60.0 mg/kg/injection, schedule: Q01DX Z (oral), vehicle: methylcellulose (MC) 104 % of control | dose: 120.0 mg/kg/injection, schedule: Q01DX Z (oral), vehicle: methylcellulose (MC) 94 % of control | dose: 240.0 mg/kg/injection, schedule: Q01DX Z (oral), vehicle: methylcellulose (MC) 109 % of control | dose: 480.0 mg/kg/injection, schedule: Q01DX Z (oral), vehicle: methylcellulose (MC) 98 % of control

CC1(C)N=C(N)N=C(N)N1NC(=O)c1ccc(F)cc1
inactive: dose: 100.0 mg/kg/injection, schedule: Q01DX009 (ip), vehicle: saline 102 % of control | dose: 200.0 mg/kg/injection, schedule: Q01DX009 (ip), vehicle: saline 96 % of control

O=C1Cc2ccccc2CN1
inactive: dose: 75.0 mg/kg/injection, schedule: Q01DX001 (ip), vehicle: acetone 100 % of control | dose: 150.0 mg/kg/injection, schedule: Q01DX001 (ip), vehicle: acetone 97 % of control

Cc1cc(C(=O)O)c(C)o1
inactive: [6] 96 % of control | [7] 93 % of control

CCOCCNC1=C(Cl)C(=O)c2ccccc2C1=O
inactive: dose: 100.0 mg/kg/injection, schedule: Q01DX001 (ip), vehicle: other 97 % of control | dose: 200.0 mg/kg/injection, schedule: Q01DX001 (ip), vehicle: other 93 % of control | dose: 400.0 mg/kg/injection, schedule: Q01DX001 (ip), vehicle: other 90 % of control

NC(N)=N/N=C/c1cccc(O)c1
inactive: dose: 63.0 mg/kg/injection, schedule: Q01DX Z (ip), vehicle: saline 112 % of control | dose: 125.0 mg/kg/injection, schedule: Q01DX Z (ip), vehicle: saline 102 % of control

CC(C)(C[NH-])C[NH-].CC(C)(C[NH-])C[NH-].CC(C)(C[NH-])C[NH-].[Co]
inactive: dose: 48.0 mg/kg/injection, schedule: Q01DX Z (ip), vehicle: saline 121 % of control | dose: 73.0 mg/kg/injection, schedule: Q01DX Z (ip), vehicle: saline 121 % of control | dose: 110.0 mg/kg/injection, schedule: Q01DX Z (ip), vehicle: saline 119 % of control | dose: 165.0 mg/kg/injection, schedule: Q01DX Z (ip), vehicle: saline 116 % of control

O=c1c(CCO)c(C2CC2)n2n1CCCC2
inactive: dose: 9.38 mg/kg/injection, schedule: Q01DX001 (ip), vehicle: other 94 % of control | dose: 18.75 mg/kg/injection, schedule: Q01DX001 (ip), vehicle: other 103 % of control

CCCCCC(CN(C)C)C(O)/C=C\c1ccccc1 (centres undefined)
inactive: dose: 12.5 mg/kg/injection, schedule: Q01DX009 (sc), vehicle: steriod suspending solution 97 % of control | dose: 12.5 mg/kg/injection, schedule: Q04DX003 (ip), vehicle: other 119 % of control | dose: 25.0 mg/kg/injection, schedule: Q01DX009 (sc), vehicle: steriod suspending solution 98 % of control | dose: 25.0 mg/kg/injection, schedule: Q04DX003 (ip), vehicle: other 106 % of control | dose: 50.0 mg/kg/injection, schedule: Q01DX009 (sc), vehicle: steriod suspending solution 97 % of control | dose: 50.0 mg/kg/injection, schedule: Q04DX003 (ip), vehicle: other 103 % of control

CCCCC(C(C)=O)C(C)=O
inactive: [6] 100 % of control | [1] 86 % of control | [7] 100 % of control | [2] 93 % of control | [8] 89 % of control | [3] 86 % of control

O=C1/C(=C\c2ccccc2Cl)N2CCC1CC2
inactive: dose: 100.0 mg/kg/injection, schedule: Q01DX001 (ip), vehicle: saline with Tween-80 94 % of control | dose: 200.0 mg/kg/injection, schedule: Q01DX001 (ip), vehicle: saline with Tween-80 109 % of control | dose: 400.0 mg/kg/injection, schedule: Q01DX001 (ip), vehicle: saline with Tween-80 93 % of control

Nc1[nH]c(=O)[nH]c(=O)c1Br
inactive: [6] 97 % of control | [9] 100 % of control | [7] 103 % of control | [10] 100 % of control | [8] 101 % of control | dose: 400.0 mg/kg/injection, schedule: Q04DX003 (ip), vehicle: Klucel (hydroxypropylcellulose) (HPC) 97 % of control

ClCCOC(OCCCl)OCCCl
inactive: [11] 105 % of control | [4] 103 % of control | [12] 87 % of control | [13] 104 % of control | [5] 95 % of control

O=C1CCCN1C(=O)c1ccccc1
inactive: [11] 101 % of control | [12] 95 % of control | dose: 400.0 mg/kg/injection, schedule: Q01DX009 (ip), vehicle: saline with Tween-80 95 % of control

c1ccc2c(c1)C1c3ccccc3C2C2COCC12 (centres undefined)
inactive: dose: 50.0 mg/kg/injection, schedule: Q01DX009 (ip), vehicle: Klucel (hydroxypropylcellulose) (HPC) 113 % of control | [6] 108 % of control | [9] 98 % of control | [10] 100 % of control

CN(C)C(=S)NN
inactive: dose: 1.56 mg/kg/injection, schedule: Q01DX009 (ip), vehicle: saline with Tween-80 111 % of control | dose: 3.12 mg/kg/injection, schedule: Q01DX009 (ip), vehicle: saline with Tween-80 117 % of control

Fc1cc(F)c(F)c(Nc2c(F)c(F)c(Br)c(F)c2F)c1F
inactive: dose: 25.6 mg/kg/injection, schedule: Q04DX002 (ip), vehicle: saline with Tween-80 92 % of control | dose: 64.0 mg/kg/injection, schedule: Q04DX002 (ip), vehicle: saline with Tween-80 103 % of control | dose: 160.0 mg/kg/injection, schedule: Q04DX002 (ip), vehicle: saline with Tween-80 92 % of control | dose: 400.0 mg/kg/injection, schedule: Q04DX002 (ip), vehicle: saline with Tween-80 95 % of control

CCCCCCCCCCCCOC(=O)OCCCCCCCCCCCC
inactive: [11] 91 % of control | [4] 97 % of control | [12] 91 % of control | [13] 101 % of control | [5] 101 % of control

O=S(=O)(/C=N\N=P(c1ccccc1)(c1ccccc1)c1ccccc1)c1ccccc1-c1ccccc1
inactive: [4] 109 % of control | [13] 98 % of control | [5] 93 % of control
